Source: US12569494B2, “Compositions and methods to promote thymic regeneration” (Fred Hutchinson Cancer Center, priority 2018, dated 2026)

Experiments:
ECs = assay: BMP4 expression in ECs after ATP; type: cell-based; conditions: NF-kB independent manner
exECs = assay: miR29 family expression by qPCR in exECs after Rac1,2,3 inhibition; type: cell-based, mice; conditions: 50 μM inhibitor, qPCR (FIG. 11)
Description: FIGS. 7A, 7B. Rho GTPase inhibition, using several small molecule inhibitors, promotes the expression of Bmp4 and the II12p40 subunit of IL-23. Ex-vivo ECs (exECs) were generated from FACS purified ECs from the thymus and transduced with lentivirus containing the adenoviral gene E4orf1, as described here Proc Natl Acad Sci USA. 2008 Dec. 9; 105(49):19288-93. The exECs were cultured in Advanced DMEM-F12 (Gibco Life Technologies 12634-028) with 20% FBS, 10 mM HEPES buffer, 1% Glutamax (Life Technologies 35050061), 1% Pen Strep, 1% Non-Essential Amino Acids (Life Technologies 11140050), 50 μg/ml Endothelial cell supplement (Alfa Aesar J64516, BT-023), 5 μM SB431542 (R&D Systems 1614), 20 ng/ml FGF (Peprotech 100-18B), 10 ng/ml VEGF (Peprotech 450-32) at 37° C., 5% O2 and 5% CO2. Thymic dendritic cells (DCs) were obtained from the thymus of 6 week old C57BL/6 mice, where post enzymatic digestion CD11c+ cells were isolated using magnetic beads (Miltenyi Biotech 130-108-338), and cultured in DMEM plus 10% FBS and 1% PenStrep at 37° C., 21% O2 and 5% CO2. The exECs and DCs were separately treated with 50 μM of the individual Rho GTPase inhibitors: RhoA (Millipore/Sigma, Rhosin, CAS 1173671-63-0, 555460-25MG), ROCK (TC-S 700, Tocris, 4961), Rac1,2,3 (Tocris, EHT 1864, 2161), and Cdc42 (Millipore/Sigma, CDC42 Inhibitor III, ZCL278, 500503) for 20 h overnight before being lysed and prepared for RNA extraction. Bmp4 and II-12p40 expression were determined by qPCR (exECs, n=3-6 wells from 2 separate experiments; DCs, n=3 mice).
FIG. 11. miR29c expression is reduced after Rac1 inhibition in ECs. exECs were treated with 50 μM Rac1,2,3 (Tocris, EHT 1864, 2161) inhibitor as described in FIGS. 7A, 7B. cDNA was prepared from isolated RNA using the Taqman Advanced miRNA cDNA Synthesis kit (Thermo Fisher A28007), and relative miR29c expression was assessed by qPCR (primers from Thermo Fisher A25576).

Ex-vivo ECs (exECs) = assay: Bmp4 expression by qPCR in ex-vivo thymic endothelial cells (exECs); type: cell-based, mice; conditions: 50 μM Rho GTPase inhibitor, 20 h overnight, qPCR (FIG. 7A)
Description: (§1) FIGS. 7A, 7B. Rho GTPase inhibition, using several small molecule inhibitors, promotes the expression of Bmp4 and the II12p40 subunit of IL-23. Ex-vivo ECs (exECs) were generated from FACS purified ECs from the thymus and transduced with lentivirus containing the adenoviral gene E4orf1, as described here Proc Natl Acad Sci USA. 2008 Dec. 9; 105(49):19288-93. The exECs were cultured in Advanced DMEM-F12 (Gibco Life Technologies 12634-028) with 20% FBS, 10 mM HEPES buffer, 1% Glutamax (Life Technologies 35050061), 1% Pen Strep, 1% Non-Essential Amino Acids (Life Technologies 11140050), 50 μg/ml Endothelial cell supplement (Alfa Aesar J64516, BT-023), 5 μM SB431542 (R&D Systems 1614), 20 ng/ml FGF (Peprotech 100-18B), 10 ng/ml VEGF (Peprotech 450-32) at 37° C., 5% O2 and 5% CO2. […] Bmp4 and II-12p40 expression were determined by qPCR (exECs, n=3-6 wells from 2 separate experiments; DCs, n=3 mice).
(§2) FIGS. 10A, 10B: In vitro treatment with a synthetic miR29c mimic reduces the expression of Bmp4 & IL-23, in ECs and DCs, respectively. exECs and DCs were generated and maintained as described in FIGS. 7A, 7B. […] Bmp4 and IL-23 expression were determined by qPCR (n=3).

[1] = system: Thymic dendritic cells (DCs); assay: Il-12p40 / IL-23 expression by qPCR in thymic dendritic cells (DCs); type: cell-based, C57BL/6 mice; conditions: 50 μM Rho GTPase inhibitor, 20 h overnight, qPCR (FIG. 7B)
Description: as §1, §2

| Structure (SMILES) | BMP4 expression (ECs) | miR29c expression (exECs; compared with untreated) | miR29a levels (exECs) | miR29b levels (exECs) | Bmp4 expression (Ex-vivo ECs (exECs)) | iI-12p40 expression [1] |
| --- | --- | --- | --- | --- | --- | --- |
| Nc1ncnc2c1ncn2[C@@H]1O[C@H](COP(=O)(O)OP(=O)(O)OP(=O)(O)O)[C@@H](O)[C@H]1O [ATP] | induces |  |  |  |  |  |
| Cl.Cl.O=c1cc(CN2CCOCC2)occ1OCCCCCSc1ccnc2cc(C(F)(F)F)ccc12 (racemic) [EHT 1864, 5-(5-(7-(Trifluoromethyl)quinolin-4-ylthio)pentyloxy)-2-(morpholinomethyl)-4H-pyran-4-one dihydrochloride] |  | significantly reduced | not reduced | not reduced | significantly upregulated | significantly upregulated |
| Cl.N[C@H](Cc1c[nH]c2ccccc12)C(=O)N/N=C/c1ccc2nccnc2c1 [Rhosin, D-Tryptophan (2E)-2-(6-quinoxalinylmethylene)hydrazide hydrochloride] |  |  |  |  | significantly upregulated | significantly upregulated |
